Values joined by “and” are separate entries in the source; they are usually repeats but may differ in a detail not shown here. Equal values may be shown once. Read-outs that look alike come from different tables or passages of the source.
Experiments:
[1] = target: T1, hCB1 (Homo sapiens, UniProt P21554); assay: bioSensAll ebBRET signaling profiling, hCB1; format: cell-based; parameters: host or cells: HEK293SL cells, transient PEI transfection; conditions: for RE, relative efficacy: vs CP-55,940; for EC50: read-out: EC50 [95% CI]; for Emax: normalized to CP-55,940
[2] = target: CB1 (rCB1) (Rattus norvegicus, UniProt P20272); assay: Radioligand competition binding, [3H]-CP-55,940, rat brain membranes; conditions: for radioligand binding, competition curve point (normalized): log[drug], replicate columns
[3] = target: T1, hCB1; assay: Lance Ultra cAMP accumulation assay, CHO cells; format: cell-based; parameters: expressed in transfected cells; conditions: for normalised cAMP response, concentration-response (Figure2f), replicate values: log[Compound;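 as to all read-outs here: human CB1R stably expressed in CHO cells, ligands co-incubated with forskolin at room temperature, read-out is lowering of forskolin-stimulated cAMP accumulation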

T1 sequence (P21554 whole entry): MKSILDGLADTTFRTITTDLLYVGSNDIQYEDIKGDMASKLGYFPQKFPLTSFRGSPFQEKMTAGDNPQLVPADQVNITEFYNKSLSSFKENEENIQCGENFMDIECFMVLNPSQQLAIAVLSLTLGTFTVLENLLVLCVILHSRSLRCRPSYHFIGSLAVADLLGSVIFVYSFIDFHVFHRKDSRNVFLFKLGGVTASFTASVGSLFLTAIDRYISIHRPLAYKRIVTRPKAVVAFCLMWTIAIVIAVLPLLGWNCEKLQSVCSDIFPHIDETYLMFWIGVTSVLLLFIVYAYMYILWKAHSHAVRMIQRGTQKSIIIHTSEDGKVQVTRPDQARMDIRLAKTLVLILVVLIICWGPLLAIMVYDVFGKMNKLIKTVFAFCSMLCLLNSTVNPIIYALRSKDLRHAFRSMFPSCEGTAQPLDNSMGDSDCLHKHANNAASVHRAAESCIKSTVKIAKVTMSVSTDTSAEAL
Chain of CB1 (rCB1) (P20272 whole entry): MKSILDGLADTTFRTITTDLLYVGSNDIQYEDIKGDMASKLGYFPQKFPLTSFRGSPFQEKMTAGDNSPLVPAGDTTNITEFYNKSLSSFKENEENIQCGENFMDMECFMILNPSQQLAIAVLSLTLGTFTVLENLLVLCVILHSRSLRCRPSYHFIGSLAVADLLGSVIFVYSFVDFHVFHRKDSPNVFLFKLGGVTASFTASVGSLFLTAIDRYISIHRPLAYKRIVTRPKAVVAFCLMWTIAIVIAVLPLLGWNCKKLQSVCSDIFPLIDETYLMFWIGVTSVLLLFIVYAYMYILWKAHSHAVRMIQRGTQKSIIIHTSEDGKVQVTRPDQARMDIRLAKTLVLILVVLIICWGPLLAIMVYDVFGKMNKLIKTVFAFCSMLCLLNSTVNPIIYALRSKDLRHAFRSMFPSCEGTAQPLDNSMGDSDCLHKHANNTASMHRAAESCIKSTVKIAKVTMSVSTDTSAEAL

In the case of `COC(=O)[C@@](C)(NC(=O)c1cc(C)n(-c2cccc(C(F)(F)F)c2)n1)c1cccs1` [‘1350], the “GoB hCB1” value ([1]; Log [Compound] (M) -8.39794) is reported as 91.7888 and 85.5166 and 90.3229, the “Gq hCB1” value ([1]; Log [Compound] (M) -8.39794) is reported as 1079 and the “Gs hCB1” value ([1]; Log [Compound] (M) -8.39794) is reported as 6774. The “Gz hCB1” value ([1]; Log [Compound] (M) -8.39794) was 90.3591 and 90.0229, the “G13 hCB1” value ([1]; Log [Compound] (M) -8.68787) was 53.1584 and 35.4081 and the “G15 hCB1” value ([1]; Log [Compound] (M) -8.68787) was 102.996 and 87.3488. For the same molecule, the “Gi1 hCB1” value ([1]; Log [Compound] (M) -8.68787) was 91.5518 and 80.8983 and 96.1797, the “Gi2 hCB1” value ([1]; Log [Compound] (M) -8.68787) was 100.616 and 73.0934 and the “GoB hCB1” value ([1]; Log [Compound] (M) -8.68787) was 87.9026 and 94.3015 and 102.463. For the same molecule, the “Gq hCB1” value ([1]; Log [Compound] (M) -8.68787) was 1093, the “Gs hCB1” value ([1]; Log [Compound] (M) -8.68787) was 6188 and the “Gz hCB1” value ([1]; Log [Compound] (M) -8.68787) was 71.525 and 105.899. The “G13 hCB1” value ([1]; Log [Compound] (M) -9.15521) was 29.8642 and 17.8839, the “G15 hCB1” value ([1]; Log [Compound] (M) -9.15521) was 73.5984 and 77.2225 and the “Gi1 hCB1” value ([1]; Log [Compound] (M) -9.15521) was 81.1718 and 69.1157 and 80.6507. The “Gi2 hCB1” value ([1]; Log [Compound] (M) -9.15521) was 77.4138 and 61.2639, the “GoB hCB1” value ([1]; Log [Compound] (M) -9.15521) was 71.2656 and 63.2418 and 86.0488 and the “Gq hCB1” value ([1]; Log [Compound] (M) -9.15521) was 979. For the same molecule, the “Gs hCB1” value ([1]; Log [Compound] (M) -9.15521) was 6053, the “Gz hCB1” value ([1]; Log [Compound] (M) -9.15521) was 50.0303 and 83.0974 and the “G15 hCB1” value ([1]; Log [Compound] (M) -9.61989) was 46.4936 and 49.8683. For the same molecule, the “Gi1 hCB1” value ([1]; Log [Compound] (M) -9.61989) was 46.5026 and 32.8966 and 52.9951, the “Gi2 hCB1” value ([1]; Log [Compound] (M) -9.61989) was 46.1296 and 39.0463 and the “GoB hCB1” value ([1]; Log [Compound] (M) -9.61989) was 41.2683 and 36.2447 and 42.156. The “Gq hCB1” value ([1]; Log [Compound] (M) -9.61989) was 993, the “Gs hCB1” value ([1]; Log [Compound] (M) -9.61989) was 6331 and the “G15 hCB1” value ([1]; Log [Compound] (M) -10.0969) was 22.2784 and 20.2785. For the same molecule, the “Gi2 hCB1” value ([1]; Log [Compound] (M) -10.0969) was 20.3201 and 12.6408, the “GoB hCB1” value ([1]; Log [Compound] (M) -10.0969) was 15.6017 and 12.0427 and 18.9365 and the “Gq hCB1” value ([1]; Log [Compound] (M) -10.0969) was 1040. The “Gs hCB1” value ([1]; Log [Compound] (M) -10.0969) was 6351, the “G15 hCB1” value ([1]; Log [Compound] (M) -10.5529) was 10.1469 and 8.811 and the “Gq hCB1” value ([1]; Log [Compound] (M) -10.5529) was 1032. For the same molecule, the “Gs hCB1” value ([1]; Log [Compound] (M) -10.5529) was 6578, the “Gq hCB1” value ([1]; Log [Compound] (M) -11.0177) was 1054 and the “Gs hCB1” value ([1]; Log [Compound] (M) -11.0177) was 6308. For the same molecule, the “Gq hCB1” value ([1]; Log [Compound] (M) -11.4949) was 1050, the “Gs hCB1” value ([1]; Log [Compound] (M) -11.4949) was 6446 and the “Gq hCB1” value ([1]; Log [Compound] (M) -11.9208) was 1129. For the same molecule, the “Gs hCB1” value ([1]; Log [Compound] (M) -11.9208) was 6648, the “Gq hCB1” value ([1]; Log [Compound] (M) -12.3979) was 1059 and the “Gs hCB1” value ([1]; Log [Compound] (M) -12.3979) was 6648. The “Gq hCB1” value ([1]; Log [Compound] (M) -12.8861) was 1070, the “Gs hCB1” value ([1]; Log [Compound] (M) -12.8861) was 6918 and the “pEC50 [95% CI]” value ([1]; hCB1 G13) was 9.08 [8.6 – 9.6]. The “RE, relative efficacy” value ([1]; hCB1 G13) was 1.64, the “RE, relative efficacy” value ([1]; hCB1 G15) was 1.14 and the “pEC50 [95% CI]” value ([1]; hCB1 Gi1) was 9.63 [9.5 – 9.7]. For the same molecule, the “RE, relative efficacy” value ([1]; hCB1 Gi1) was 1.98, the “RE, relative efficacy” value ([1]; hCB1 Gi2) was 1.89 and the “RE, relative efficacy” value ([1]; hCB1 GoB) was 2.24. For the same molecule, the “RE, relative efficacy” value ([1]; hCB1 Gz) was 0.77, the “RE, relative efficacy” value ([1]; hCB1 ßarr2+GRK2) was 1.16 and the EC50 ([1]; hCB1 Barr2 + GRK2) was 2.2 nM. For the same molecule, the EC50 ([1]; hCB1 G13) was 0.83 nM, the EC50 ([1]; hCB1 G15) was 0.22 nM and the EC50 ([1]; hCB1 Gi1) was 0.23 nM. The EC50 ([1]; hCB1 Gi2) was 0.28 nM, the EC50 ([1]; hCB1 GoB) was 0.29 nM and the EC50 ([1]; hCB1 Gz) was 0.35 nM. It also gave an Emax ([1]; read-out: Emax [95% CI], hCB1 Barr2 + GRK2) of 63%, an Emax ([1]; read-out: Emax [95% CI], hCB1 G13) of 56% and an Emax ([1]; read-out: Emax [95% CI], hCB1 G15) of 99%. It also gave an Emax ([1]; read-out: Emax [95% CI], hCB1 Gi1) of 92%, an Emax ([1]; read-out: Emax [95% CI], hCB1 Gi2) of 95% and an Emax ([1]; read-out: Emax [95% CI], hCB1 GoB) of 98%. For the same molecule, the Emax ([1]; read-out: Emax [95% CI], hCB1 Gz) was 94%, the “LLE (lipophilic ligand efficiency)” value ([2]; LLE = pIC50 − clogP) was 4.7 and the “LE (ligand efficiency)” value ([2]; from rCB1 affinity) was 0.41. For the same molecule, the “pKi [95% CI]” value ([2]; rCB1) was 9.0 [8.9 – 9.1] and 9.02 [8.9 – 9.1], the “radioligand binding, competition curve point (normalized)” value (shortened to “radioligand binding … (normalized)”) ([2]; rCB1, M = -6.643) was -0.744 and -7.487 and -3.298 and the “radioligand binding … (normalized)” value ([2]; rCB1, M = -7.357) was -0.8036 and -4.1 and -0.2377. For the same molecule, the “radioligand binding … (normalized)” value ([2]; rCB1, M = -8.07) was 10.2232 and 5.66 and 5.585, the “radioligand binding … (normalized)” value ([2]; rCB1, M = -8.783) was 48.7054 and 44.7118 and 50.1783 and the “radioligand binding … (normalized)” value ([2]; rCB1, M = -9.496) was 85.9821 and 91.8301 and 85.5615. The “radioligand binding … (normalized)” value ([2]; rCB1, M = -10.21) was 99.5833 and 109.715 and 87.0469, the “radioligand binding … (normalized)” value ([2]; rCB1, M = -11.923) was 90.0893 and 95.7219 and 98.7077 and the “radioligand binding … (normalized)” value ([2]; rCB1, M = -13.636) was 93.4375 and 98.1283. For the same molecule, the “fold more potent than CP-55,940” value ([2]; rCB1 binding) was 3 fold, the “fold improvement in CB1R affinity” value ([2]; vs parent hit or analog without the change) was roughly 50 fold and the “Lance Ultra cAMP pEC50” value [3] was 8.8 [8.4 – 9.2]. The Emax ([3]; CHO) was 77%, the “agonism, inhibition of forskolin-stimulated cAMP” value ([3]; hCB1-expressing cells, in words) was “agonists” and the “normalised cAMP response, concentration-response (Figure2f), replicate values” (from here on “normalised cAMP response”) ([3]; M] -5) was -4.858 and 11.635 and 22.5761 and 22.3192 and 16.0513. The “normalised cAMP response” value ([3]; M] -6) was 0.02957 and 13.0032 and 24.8348 and 23.4809 and 19.7873, the “normalised cAMP response” value ([3]; M] -7) was -1.176 and 11.2775 and 31.1162 and 23.9321 and 21.5823 and the “normalised cAMP response” value ([3]; M] -8) was 4.023 and 6.478 and 36.7172 and 38.802 and 36.5532. The “normalised cAMP response” value ([3]; M] -9) was 33.486 and 46.5508 and 80.4827 and 77.993 and 76.9862, the “normalised cAMP response” value ([3]; M] -10) was 57.5574 and 85.1374 and 96.2204 and 101.985 and 96.4953 and the “normalised cAMP response” value ([3]; M] -11) was 67.5707 and 85.3574 and 95.6722 and 97.0187 and 98.6477. The “normalised cAMP response” value ([3]; M] -12) was 65.6738 and 93.8429 and 115.239 and 106.805 and 95.2537.
